Assay results reported in ChEMBL document CHEMBL5729359, “Tri-substituted heteroaryl derivatives as Src homology-2 phosphatase inhibitors” (2022).
One block for each compound: values may come before it.

Biological target: T1, Tyrosine-protein phosphatase non-receptor type 11 (Homo sapiens, UniProt Q06124)
T1 sequence (Q06124 whole entry): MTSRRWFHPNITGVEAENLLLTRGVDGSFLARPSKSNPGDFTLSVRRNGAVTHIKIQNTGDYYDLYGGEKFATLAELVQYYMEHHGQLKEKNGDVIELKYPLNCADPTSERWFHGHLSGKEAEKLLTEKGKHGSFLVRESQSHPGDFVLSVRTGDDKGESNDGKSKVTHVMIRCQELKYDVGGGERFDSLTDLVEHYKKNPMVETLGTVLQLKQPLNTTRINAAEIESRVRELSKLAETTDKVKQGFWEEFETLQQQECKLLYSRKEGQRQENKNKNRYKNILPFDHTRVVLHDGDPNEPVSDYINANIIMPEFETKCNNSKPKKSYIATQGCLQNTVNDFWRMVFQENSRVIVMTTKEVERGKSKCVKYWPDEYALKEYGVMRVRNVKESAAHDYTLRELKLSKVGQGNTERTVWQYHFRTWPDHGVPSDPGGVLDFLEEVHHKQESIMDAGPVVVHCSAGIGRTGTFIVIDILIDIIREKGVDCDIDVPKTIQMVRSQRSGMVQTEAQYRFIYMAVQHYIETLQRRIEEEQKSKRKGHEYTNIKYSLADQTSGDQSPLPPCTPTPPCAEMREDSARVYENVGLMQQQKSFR
Assay: At the basal state, SHP2 is auto-inhibited and access of substrates to the catalytic site is blocked by the […] interactions between the SH2 domains and the PTP domain. When bis-tyrosyl-phosphorylated peptides bind to SH2 domain of SHP2, the PTP domain becomes available for substrate recognition and reaction catalysis and SHP2 is allosterically activated. SHP2 catalytic activity can be measured using a fluorogenic artificial substrate DiFMUP.The phosphatase reactions were carried out at room temperature in 384-well black polystyrene plates (Greiner Bio-One, Cat #784076) using assay buffers containing 60 mM HEPES, pH 7.2, 75 mM NaCl, 75 mM KCl, 1 mM EDTA, 0.05% P-20, and 5 mM DTT.0.33 nM of […] was co-incubated with of 0.5 μM of bisphos-IRS 1 peptide (sequence: H2N-LN(pY)IDLDLV(dPEG8)LST(pY)ASINFQK-amide) and various concentrations of compounds for 30-60 min at room temperature. Then the reaction was initiated by addition of the surrogate substrate DiFMUP (Invitrogen, Cat #D6567, 100 uM final).The real-time conversion of DiFMUP to DiFMU (6,8-difluoro-7-hydroxyl-4-methyl-coumarin) was measured every 5 min for 30 min using a microplate reader (CLARIOstar, BMG Labtech) with excitation and emission wavelengths of 340 nm and 450 nm, respectively. Initial reaction rates were determined by linear fitting of the data and the inhibitor dose response curves were analyzed using normalized IC50 regression curve fitting with control based normalization.

Structure (SMILES): C[C@@H]1OCC2(CCN(c3ncc(Sc4ccnc(N)c4Cl)nc3Cl)CC2)[C@@H]1N
IC50: 12 nM

Structure (SMILES): C[C@@H]1OCC2(CCN(c3ncc(Sc4cc5[nH]c6c(c5nc4Cl)CCCC6O)nc3CO)CC2)[C@@H]1N (stereo partly specified)
IC50: 4.8 nM

Structure (SMILES): C[C@@H]1OCC2(CCN(c3ncc(Sc4ccnc(N)c4Cl)nc3CO)CC2)[C@@H]1N
IC50: 0.9 nM

Structure (SMILES): COc1nccc(Sc2cnc(N3CCC4(CC3)CO[C@@H](C)[C@H]4N)c([S+](C)[O-])n2)c1Cl (stereo partly specified)
IC50: 18 nM

Structure (SMILES): C[C@@H]1OCC2(CCN(c3ncc(Sc4ccnc(N)c4Cl)nc3O)CC2)[C@@H]1N
IC50: 13 nM

Structure (SMILES): C[C@@H]1OCC2(CCN(c3ncc(Sc4ccnc(N5CCCC5)c4Cl)nc3[S+](C)[O-])CC2)[C@@H]1N (stereo partly specified)
IC50: 13 nM

Structure (SMILES): C[C@@H]1OCC2(CCN(c3ncc(Sc4ccnc(Cl)c4Cl)nc3[S+](C)[O-])CC2)[C@@H]1N (stereo partly specified)
IC50: 6 nM

Structure (SMILES): C[C@@H]1OCC2(CCN(c3ncc(Sc4cccnc4C(F)(F)F)nc3[S+](C)[O-])CC2)[C@@H]1N (stereo partly specified)
IC50: 85 nM

Structure (SMILES): C[C@@H]1OCC2(CCN(c3ncc(Sc4ccnc(N)c4Cl)nc3[S+](C)[O-])CC2)[C@@H]1N (stereo partly specified)
IC50: 13 nM

Structure (SMILES): CN1C(=O)CCC12CC(N)C1(CCN(c3ncc(Sc4ccnc(N)c4Cl)nc3CO)CC1)C2 (stereo unspecified)
IC50: 269 nM

Structure (SMILES): C[C@@H]1OCC2(CCN(c3ncc(Sc4cc5[nH]c6c(c5nc4Cl)CC(O)CC6)nc3CO)CC2)[C@@H]1N (stereo partly specified)
IC50: 3.5 nM

The remaining lines, values ahead:

IC50: 0.6 nM
Structure (SMILES): Nc1nccc(Sc2cnc(N3CCC4(CC3)Cc3ncccc3[C@H]4N)c(CO)n2)c1Cl

IC50: 3 nM
Structure (SMILES): Nc1nccc(Sc2cnc(N3CCC4(CC3)CCC3(CC3)C4N)c(CO)n2)c1Cl (stereo unspecified)

IC50: 5.5 nM
Structure (SMILES): COC1CCc2[nH]c3cc(Sc4cnc(N5CCC6(CC5)CO[C@@H](C)[C@H]6N)c(CO)n4)c(Cl)nc3c2C1 (stereo partly specified)

IC50: 21 nM
Structure (SMILES): C[C@@H]1OCC2(CCN(c3ncc(Sc4ccnc(F)c4Cl)nc3[S+](C)[O-])CC2)[C@@H]1N (stereo partly specified)

IC50: 3 nM
Structure (SMILES): C[C@@H]1OCC2(CCN(c3ncc(Sc4cc(N)nc(Cl)c4Cl)nc3[S+](C)[O-])CC2)[C@@H]1N (stereo partly specified)
